In PubChem BioAssay (NCI) one finds GI50 and TGI data, which are given here for 5 compounds.

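In this assay, cells in 96-well plates receive the compound at five concentrations for 48 hours. Endpoints are linearly interpolated between the surrounding concentrations. The concentration for 50% growth inhibition is given as GI50. TGI is the concentration that stops growth completely.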

Test systems include HS 578T breast; M14 melanoma; MDA-MB-435; NCI-H522 lung; OVCAR-3 ovarian; OVCAR-4 ovarian; OVCAR-5 ovarian; SF-268 CNS; SK-MEL-5 melanoma; SW-620 colon.
Common to all, as to assay: NCI anticancer screen, dose series, 48 h

Turning to `COc1ccc(/C=C2\CN(C(=O)CCN3CCC(=NO)CC3)C/C(=C\c3ccc(OC)cc3)C2=O)cc1`, the GI50 with HS 578T breast was 3.64 µM; in the assay with M14 melanoma, 2.04 µM; in the assay on MDA-MB-435 it was 1.76 µM; in the assay with NCI-H522 lung, 2.17 µM; in the assay on OVCAR-3 ovarian, 1.89 µM; in the assay on OVCAR-4 ovarian, 3.34 µM. Moreover, the GI50 is 1.83 µM in the assay on OVCAR-5 ovarian, 2.84 µM with SF-268 CNS, 1.82 µM with SK-MEL-5 melanoma and 1.39 µM in the assay with SW-620 colon. Also, the TGI with HS 578T breast amounted to 18.6 µM; in the assay with M14 melanoma it was 4.54 µM; in the assay on MDA-MB-435, 3.49 µM; in the assay with NCI-H522 lung it was 5.5 µM; in the assay on OVCAR-3 ovarian, 3.56 µM; in the assay on OVCAR-4 ovarian, 17.7 µM. Also, the results for the TGI in the assay with OVCAR-5 ovarian, in the assay with SK-MEL-5 melanoma and with SW-620 colon were 3.92 µM, 3.29 µM and 3.14 µM, respectively.
For the compound `CC(=O)Oc1ccccc1[C@H]1CC(=O)C[C@H](c2ccccc2OC(C)=O)C12C(=O)c1ccccc1C2=O`, the TGI in the assay with HS 578T breast is over 100 µM; in the assay with M14 melanoma, 70.9 µM; in the assay with MDA-MB-435, 31.6 µM; in the assay with NCI-H522 lung, 92.8 µM; in the assay on OVCAR-3 ovarian, 89.2 µM; in the assay with OVCAR-4 ovarian, over 100 µM. In addition, the TGI in the assay on OVCAR-5 ovarian is over 100 µM; in the assay with SK-MEL-5 melanoma, 48.7 µM.
Take `COc1cc(C2CC(c3cccc(Nc4ccncc4)c3)=NN2c2cc(Cl)cc(Cl)c2)cc(OC)c1OC` (centres undefined): the GI50 with M14 melanoma is 1.75 µM; in the assay on MDA-MB-435 it was 1.61 µM; with OVCAR-3 ovarian, 1.73 µM; in the assay with SF-268 CNS, 1.61 µM; with SK-MEL-5 melanoma it was 1.8 µM; in the assay on SW-620 colon it was 1.67 µM. Besides, the TGI in the assay with M14 melanoma turned out to be 3.36 µM; in the assay with MDA-MB-435 it was 3.15 µM; in the assay on OVCAR-3 ovarian, 3.21 µM; in the assay with SF-268 CNS it was 3.21 µM; with SK-MEL-5 melanoma, 3.24 µM; in the assay on SW-620 colon, 3.2 µM.
Turning to `COc1cc2cc(Oc3ccc(NC(=O)Nc4ccc(F)c(C(F)(F)F)c4)cc3)c(C)nc2cc1OCCN1CCCCC1`, the GI50 is 1.81 µM in the assay with M14 melanoma; 1.74 µM in the assay with MDA-MB-435; 1.87 µM in the assay with OVCAR-3 ovarian; 1.6 µM in the assay with OVCAR-4 ovarian; 1.72 µM with OVCAR-5 ovarian; 1.7 µM in the assay on SK-MEL-5 melanoma. Further, the TGI was 3.53 µM with M14 melanoma; 3.14 µM in the assay on MDA-MB-435; 3.44 µM in the assay on OVCAR-3 ovarian; 3.13 µM with OVCAR-4 ovarian; 3.1 µM in the assay with OVCAR-5 ovarian; 3.09 µM with SK-MEL-5 melanoma.
For `O=C(c1ccccc1)c1nn(-c2ccc(Cl)cc2)c2nc3nc(-c4ccccc4)cc(=O)n3nc12`, the GI50 in the assay with HS 578T breast is 28.9 µM; in the assay on M14 melanoma it was 31.6 µM; in the assay with MDA-MB-435, 6.65 µM; with NCI-H522 lung it was 31.2 µM; in the assay on OVCAR-3 ovarian it was 24.5 µM; in the assay on OVCAR-4 ovarian, 39.9 µM. The values for the GI50 with SF-268 CNS, with SK-MEL-5 melanoma and in the assay on SW-620 colon were 42.2 µM, 20.4 µM and 49.5 µM, respectively. Moreover, the TGI in the assay with HS 578T breast is over 100 µM; in the assay with M14 melanoma, over 100 µM; in the assay on MDA-MB-435, over 100 µM; in the assay with NCI-H522 lung it was over 100 µM; in the assay on OVCAR-3 ovarian it was 77.8 µM; in the assay on OVCAR-4 ovarian, over 100 µM. For the same compound, the results for the TGI in the assay on SF-268 CNS, in the assay with SK-MEL-5 melanoma and in the assay on SW-620 colon were over 100 µM, 51.9 µM and over 100 µM, respectively.
